Test results from patent publication US20250289789A1, “REVERSIBLE LYSINE COVALENT MODIFIERS OF CDK2 AND USES THEREOF” (Terremoto Biosciences, Inc., priority 2023, published 2025).
Read-outs that look alike come from different tables or passages of the source.

Assays:
[1] = molecular target: pCDK2-CCNE1 proteins (Homo sapiens, UniProt P24941); test: Identification of covalent binding by intact mass spectrometry, with and without competitor PF-06873600; conditions: for Observed mass value of the covalent complex between compound and CDK2 protein: intact mass spectrometry after borohydride reduction, unmodified CDK2 34096-34097 Da; for Covalent complex formation with CDK2 protein (intact mass spectra after sodium borohydride reduction) / Binding pocket by competition: complex formation in presence of molar excess PF-06873600: pCDK2-CCNE1 1 μM, compound 1.5 μM; for Covalent complex formation with CDK2 protein (intact mass spectra after sodium borohydride reduction): 1 hour at room temperature or 37° C., no competitor; for Binding pocket by competition: complex formation in presence of molar excess PF-06873600: competitor PF-06873600 20 μM
Method: pCDK2-CCNE1 proteins (1 μM) were treated with a compound (1.5 μM) from Table 4 for 1 hour at room temperature or 37° C., with and without competitor molecule PF-06873600 (20 μM final concentration) as a specificity control. As used herein, the competitor molecule is
As used herein, the competitor molecule is 6-(difluoromethyl)-8-((1R,2R)-2-hydroxy-2-methylcyclopentyl)-2-((1-(methylsulfonyl)piperidin-4-yl)amino)pyrido[2,3-d]pyrimidin-7(8H)-one (PF-06873600). Reversible imines were captured by reductive amination with the addition of 5 mM sodium borohydride at room temperature for 5 min. Reduction reactions were quenched by diluting the sample in equal volume of 1% trifluoroacetic acid (v/v) in acetonitrile, then analyzed by LC-MS. Deconvoluted monoisotopic intensities of unmodified and compound-modified mass peaks were compared.
FIGS. 1A to 1P provide intact mass spectra for pCDK2-CCNE1 proteins after incubation with compounds of the present disclosure and subsequent sodium borohydride reduction. […] Further, FIGS. 1A to 1P each provide intact mass spectra following the incubation of pCDK2-CCNE1 proteins with a compound of the present disclosure both in the absence of a competitor molecule (i.e., PF-06873600, a molecule known to bind to and inhibit the function of CDK2); and in the presence of a significant stoichiometric excess of a competitor molecule PF-06873600.
FIGS. 2A to 2N provide intact mass spectra for pCDK2-CCNE1 proteins after incubation with compounds of the present disclosure and subsequent sodium borohydride reduction.

[2] = molecular target: T1, CDK4-NanoLuc fusion with CCND1 in 293T or 293 cells (Homo sapiens, UniProt P11802); test: NanoBRET Target Engagement (TE) Intracellular Kinase Assay, CDK4/CCND1; assay type: cell-based; conditions: NanoBRET TE intracellular kinase assay, 2-hour incubation, read-out: NanoBRET-CDK4/D1 IC50
T1 construct: host or cells: 293T (ATCC CRL-3216) or 293 (ATCC CRL-1573)

[3] = system: Phospho-Rb Ser807/811 in OVCAR3 cells; test: OVCAR3 Phospho-Rb Ser807/811 HTRF assay; assay type: cell-based; conditions: Homo sapiens, OVCAR-3, 1 h, read-out: pRb-OVCAR3 IC50
Method: Cells were trypsinized and resuspended in 1 mM hydroxyurea (Sigma; H8627), 90% RPMI and 10% fetal bovine serum. […] Dose response curve normalized to DMSO control was plotted using four-parameter logistic model for IC50 calculation.

[4] = molecular target: T2, CDK2-NanoLuc fusion with CCNE1 in 293T or 293 cells (Homo sapiens, UniProt P24941); test: NanoBRET Target Engagement (TE) Intracellular Kinase Assay, CDK2/CCNE1; assay type: cell-based; conditions: 2-hour incubation
T2 construct: host or cells: 293T (ATCC CRL-3216) or 293 (ATCC CRL-1573)

[5] = molecular target: T3, CDK1-NanoLuc fusion with CCNB1 in 293T or 293 cells (Homo sapiens, UniProt P06493); test: NanoBRET Target Engagement (TE) Intracellular Kinase Assay, CDK1/CCNB1; assay type: cell-based; conditions: NanoBRET TE intracellular kinase assay, 2-hour incubation, read-out: NanoBRET-CDK1/B1 IC50
T3 construct: host or cells: 293T (ATCC CRL-3216) or 293 (ATCC CRL-1573)
Procedure, shortened: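 IC50 derived by four-parameter logistic fit of DMSO-normalized acceptor/donor (610/450 nm) BRET ratio. Compound and Tracer K-10 were applied together for 2 h at 37° C to 293 or 293T cells transfected 24 h earlier with CDK1-NanoLuc fusion and cyclin B1.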

[6] = OVCAR3 cells, Phospho-Rb Ser807/811 HTRF, 1 hour incubation
[7] = NanoBRET TE intracellular kinase assay, read-out: NanoBRET-CDK2/E1 IC50

T1 sequence (P11802 whole entry, the tested form may be a part): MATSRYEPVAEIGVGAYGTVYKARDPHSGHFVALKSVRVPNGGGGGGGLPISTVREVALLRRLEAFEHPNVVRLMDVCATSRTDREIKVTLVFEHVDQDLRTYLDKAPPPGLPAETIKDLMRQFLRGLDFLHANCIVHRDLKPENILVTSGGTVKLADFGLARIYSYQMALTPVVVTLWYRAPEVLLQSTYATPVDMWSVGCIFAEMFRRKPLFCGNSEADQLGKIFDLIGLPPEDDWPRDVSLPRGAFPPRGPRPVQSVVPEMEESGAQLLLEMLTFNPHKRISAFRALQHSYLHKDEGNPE
T1 sequence (P24385 whole entry partner, the tested form may be a part): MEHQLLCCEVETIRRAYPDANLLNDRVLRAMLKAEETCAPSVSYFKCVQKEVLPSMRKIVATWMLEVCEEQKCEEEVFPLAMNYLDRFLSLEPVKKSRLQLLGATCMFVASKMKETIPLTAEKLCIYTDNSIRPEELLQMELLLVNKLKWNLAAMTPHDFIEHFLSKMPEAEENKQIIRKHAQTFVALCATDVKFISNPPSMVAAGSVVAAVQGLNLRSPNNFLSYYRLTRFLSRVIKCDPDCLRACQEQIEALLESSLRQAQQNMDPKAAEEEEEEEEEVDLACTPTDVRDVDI
T3 sequence (P06493 whole entry, the tested form may be a part): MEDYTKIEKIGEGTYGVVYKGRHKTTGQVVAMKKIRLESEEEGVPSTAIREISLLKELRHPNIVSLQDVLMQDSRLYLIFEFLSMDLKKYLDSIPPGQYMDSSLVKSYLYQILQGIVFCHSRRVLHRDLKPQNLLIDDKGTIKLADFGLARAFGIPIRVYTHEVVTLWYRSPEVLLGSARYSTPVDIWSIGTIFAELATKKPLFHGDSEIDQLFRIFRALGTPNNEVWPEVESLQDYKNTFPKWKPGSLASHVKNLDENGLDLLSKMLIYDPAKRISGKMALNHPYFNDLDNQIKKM
T3 sequence (P14635 whole entry partner, the tested form may be a part): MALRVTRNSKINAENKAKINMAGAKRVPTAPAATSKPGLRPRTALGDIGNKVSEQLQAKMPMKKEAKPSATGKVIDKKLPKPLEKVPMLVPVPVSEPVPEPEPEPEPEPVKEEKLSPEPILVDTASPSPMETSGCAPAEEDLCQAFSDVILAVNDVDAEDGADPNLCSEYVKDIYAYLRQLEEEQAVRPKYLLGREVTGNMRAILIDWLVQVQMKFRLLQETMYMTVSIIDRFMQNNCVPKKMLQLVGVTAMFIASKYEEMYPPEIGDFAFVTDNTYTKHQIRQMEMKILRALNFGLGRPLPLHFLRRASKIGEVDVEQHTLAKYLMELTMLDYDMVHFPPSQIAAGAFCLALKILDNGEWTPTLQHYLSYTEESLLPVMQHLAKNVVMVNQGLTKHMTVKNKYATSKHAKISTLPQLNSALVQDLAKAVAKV

Row | SMILES | Observed mass value of the covalent complex between compound and CDK2 protein [1] | Covalent complex formation with CDK2 protein (intact mass spectra after sodium borohydride reduction) [1] | IC50 [2] | IC50 [3, 6] | IC50 [4, 7] | IC50 [5] | Binding pocket by competition: complex formation in presence of molar excess PF-06873600 [1] | IC50 [3] | IC50 ([4]; NanoBRET-CDK2/E1 IC50, NanoBRET TE intracellular kinase assay)
1 | CC(C)NC(=O)O[C@@H]1CC[C@H](c2cc(Nc3cc(Oc4cccc(O)c4C=O)ccn3)n[nH]2)C1 [Compound 13, (1R,3S)-3-(5-{[4-(2-formyl-3-hydroxyphenoxy)pyridin-2-yl]amino}-2H-pyrazol-3-yl)cyclopentyl N-isopropylcarbamate; trifluoroacetic acid] | 34546 Da | formed a covalent complex with CDK2 protein | 4.7 µM | 0.701 µM | 0.0124 µM | 0.0929 µM | bound to the same binding pocket of CDK2 as the competitor molecule PF-06873600 |  | 
2 | CC1(NC(=O)O[C@@H]2CC[C@H](c3cc(NC(=O)COc4cccc(O)c4C=O)n[nH]3)C2)CC1 [Compound 82, (1R,3S)-3-{5-[2-(2-formyl-3-hydroxyphenoxy)acetamido]-2H-pyrazol-3-yl}cyclopentyl N-(1-methylcyclopropyl)carbamate; trifluoroacetic acid] | 34523 Da | resulted in covalent complex formation | 4.42 µM | 0.0432 µM | 0.00332 µM | 0.0113 µM |  |  | 
3 | CC(C)NC(=O)O[C@@H]1CC[C@H](c2cc(NC(=O)Cc3cnn(-c4cccc(O)c4C=O)c3)n[nH]2)C1 [Compound 16, (1R,3S)-3-(5-{2-[1-(2-formyl-3-hydroxyphenyl)pyrazol-4-yl]acetamido}-2H-pyrazol-3-yl)cyclopentyl N-isopropylcarbamate; trifluoroacetic acid] | 34561 Da | formed a covalent complex with CDK2 protein | 0.626 µM |  |  | 0.0759 µM | bound to the same binding pocket of CDK2 as the competitor molecule PF-06873600 | 0.585 µM | 0.0343 µM

More lines, main results first:

Row | Observed mass value of the covalent complex between compound and CDK2 protein [1] | Covalent complex formation with CDK2 protein (intact mass spectra after sodium borohydride reduction) [1] | IC50 [2] | IC50 [3, 6] | IC50 [4, 7] | IC50 [5] | SMILES | Binding pocket by competition: complex formation in presence of molar excess PF-06873600 [1] | IC50 [3] | IC50 ([4]; NanoBRET-CDK2/E1 IC50, NanoBRET TE intracellular kinase assay)
4 |  | resulted in covalent complex formation | 1.61 µM | 4.64 µM | 0.0114 µM | 0.703 µM | CC(C)NC(=O)O[C@@H]1CC[C@H](c2cc(NC(=O)c3cc(-c4cccc(C=O)c4O)nn3C)n[nH]2)C1 [Compound 18, (1R,3S)-3-{5-[5-(3-formyl-2-hydroxyphenyl)-2-methylpyrazole-3-amido]-2H-pyrazol-3-yl}cyclopentyl N-isopropylcarbamate trifluoroacetic acid] |  |  | 
5 | 34554 Da | resulted in covalent complex formation | 3.79 µM | 0.0317 µM | 0.00143 µM | 0.00566 µM | COc1cc(OC)c(C=O)c(OCC(=O)Nc2cc([C@H]3CC[C@@H](OC(=O)NC(C)C)C3)[nH]n2)c1 [Compound 103, (1R,3S)-3-{5-[2-(2-formyl-3,5-dimethoxyphenoxy)acetamido]-2H-pyrazol-3-yl}cyclopentyl N-isopropylcarbamate] |  |  | 
6 |  | resulted in covalent complex formation | 0.779 µM |  | 0.138 µM | 1.69 µM | CC(C)c1ccc(O[C@@H]2CC[C@H](c3cc(NC(=O)CCc4cccc(O)c4C=O)n[nH]3)C2)nn1 [Compound 14, 3-(2-formyl-3-hydroxyphenyl)-N-{5-[(1S,3R)-3-[(6-isopropylpyridazin-3-yl)oxy]cyclopentyl]-1H-pyrazol-3-yl}propanamide] |  |  | 
7 |  | resulted in covalent complex formation | 0.969 µM |  | 0.0109 µM | 0.125 µM | CC1(NC(=O)O[C@@H]2CC[C@H](c3cc(NC(=O)CCc4cccc(O)c4C=O)n[nH]3)C2)CC1 [Compound 23, (1R,3S)-3-(3-(3-(2-formyl-3-hydroxyphenyl)propanamido)-1H-pyrazol-5-yl)cyclopentyl (1-methylcyclopropyl)carbamate trifluoroacetic acid] |  |  | 
